# Results from ChEMBL document CHEMBL4428075, “New antiproliferative 7-(4-(N-substituted carbamoylmethyl)piperazin-1-yl) derivatives of ciprofloxacin induce cell cycle arrest at G2/M phase” (Bioorg Med Chem, 2016).
# Calls of active or inactive are those of the source. The calls are words filed in the database; no cut-off is given here.
# Tests used:
# WI-38 [1] = assay: Downregulation of cdc2 expression in human WI38 cells at 5 to 25 uM after 24 hrs by Western blot analysis; assay type: ADME, cell-based; conditions: wi-38, 24 h
# A549 [2] = assay: Induction of cell cycle arrest in human A549 cells assessed as accumulation at G2/M phase after 24 hrs by FITC-labeled FACS calibur flow cytometric analysis; assay type: functional, cell-based
# A549 [3] = assay: Induction of cell cycle arrest in human A549 cells assessed as accumulation at sub G1 phase at 5 uM after 24 hrs by FITC-labeled anti-BrdU antibody/7AAD staining based FACS calibur flow cytometric analysis (reference value: 0.82 %); assay type: functional
# A549 [4] = assay: Induction of cell cycle arrest in human A549 cells assessed as accumulation at G1 phase at 10 uM after 24 hrs by FITC-labeled anti-BrdU antibody/7AAD staining based FACS calibur flow cytometric analysis (reference value: 65.9 %); assay type: functional
# A549 [5] = assay: Induction of cell cycle arrest in human A549 cells assessed as accumulation at S phase at 10 uM after 24 hrs by FITC-labeled anti-BrdU antibody/7AAD staining based FACS calibur flow cytometric analysis (reference value: 20.9 %); assay type: functional
# A549 [6] = assay: Induction of cell cycle arrest in human A549 cells assessed as accumulation at sub G1 phase at 10 uM after 24 hrs by FITC-labeled anti-BrdU antibody/7AAD staining based FACS calibur flow cytometric analysis (reference value: 0.82 %); assay type: functional
# A549 [7] = assay: Induction of cell cycle arrest in human A549 cells assessed as accumulation at G2/M phase at 15 uM after 24 hrs by FITC-labeled anti-BrdU antibody/7AAD staining based FACS calibur flow cytometric analysis (reference value: 12.61 %); assay type: functional
# A549 [8] = assay: Induction of cell cycle arrest in human A549 cells assessed as accumulation at S phase at 15 uM after 24 hrs by FITC-labeled anti-BrdU antibody/7AAD staining based FACS calibur flow cytometric analysis (reference value: 20.9 %); assay type: functional
# A549 [9] = assay: Induction of cell cycle arrest in human A549 cells assessed as accumulation at sub G1 phase at 15 uM after 24 hrs by FITC-labeled anti-BrdU antibody/7AAD staining based FACS calibur flow cytometric analysis (reference value: 0.82 %); assay type: functional
# A549 [10] = assay: Induction of cell cycle arrest in human A549 cells assessed as accumulation at S phase at 25 uM after 24 hrs by FITC-labeled anti-BrdU antibody/7AAD staining based FACS calibur flow cytometric analysis (reference value: 20.9 %); assay type: functional
# A549 [11] = assay: Upregulation of p53 expression in human A549 cells after 24 hrs by Western blot analysis; assay type: functional, cell-based
# A549 [12] = assay: Downregulation of cyclinB1 expression in human A549 cells after 24 hrs by Western blot analysis; assay type: functional, cell-based
# A549 [13] = assay: Downregulation of cdc2 expression in human A549 cells after 24 hrs by Western blot analysis; assay type: functional, cell-based
# WI-38 [14] = assay: Upregulation of p53 expression human WI38 cells at 5 to 25 uM after 24 hrs by Western blot analysis; assay type: ADME, cell-based; conditions: wi-38, 24 h
# A549 [15] = assay: Induction of p21 expression in human A549 cells at 25 uM after 24 hrs in presence of PFTalpha by Western blot analysis; assay type: functional, cell-based
# A549 [16] = assay: Induction of cell cycle arrest in human A549 cells assessed accumulation at G2/M phase at 25 uM after 24 hrs in presence of PFTalpha by FITC-labeled anti-BrdU antibody/7AAD staining based FACS calibur flow cytometric analysis (reference value: 63.9%); assay type: functional
structure (smiles),measurement,setting,value
O=C(CN1CCN(c2cc3c(cc2F)c(=O)c(C(=O)O)cn3C2CC2)CC1)Nc1ccc(Cl)cc1,Activity,WI-38 [1],Non-Toxic
same,Activity,A549 [2],Dose-dependent effect
same,Activity,A549 [3],1.65%
same,Activity,A549 [4],58.5%
same,Activity,A549 [5],16.7%
same,Activity,A549 [6],4.19%
same,Activity,A549 [7],32.6%
same,Activity,A549 [8],19.8%
same,Activity,A549 [9],3.28%
same,Activity,A549 [10],10.5%
same,Activity,A549 [11],Dose-dependent effect
same,Activity,A549 [12],Dose-dependent effect
same,Activity,A549 [13],Dose-dependent effect
same,Activity,WI-38 [14],Non-Toxic
same,Activity,A549 [15],inactive
same,Activity,A549 [16],23.7%
